Common to all, as to experiment: AK assay 384-well format, Prestwick library screening
One test deals with E. coli. Type of test: cell-based, Escherichia coli. The conditions noted are these: 50 μM final drug concentration; for fold induction at 50 µM: Escherichia coli, 3 h.
For another test, the system named is P. aeruginosa. The test is classed as cell-based, Pseudomonas aeruginosa. As to conditions: for fold induction at 50 µM: Pseudomonas aeruginosa, 3 h.
The subject of test [1] is A. baumannii strain 98-37-09. Type of test: cell-based, Acinetobacter baumannii. As to conditions: for fold induction at 50 µM: Acinetobacter baumannii, 983709, 3 h.
A further test has as its system E. cloacae. The test is classed as cell-based, Enterobacter cloacae. The conditions noted are these: for fold induction at 50 µM: Enterobacter cloacae, 3 h.
A further test has as its system K. pneumoniae. The test is classed as cell-based, Klebsiella pneumoniae. The conditions noted are these: for fold induction at 50 µM: Klebsiella pneumoniae, 3 h.
The subject of test [2] is S. aureus strain USA300-0114. The test is classed as cell-based, Staphylococcus aureus. The conditions noted are these: for fold induction at 50 µM: Staphylococcus aureus, USA300, 3 h.
In the next test the test system is E. faecium. Type of test: cell-based, Enterococcus faecium. As to conditions: for fold induction at 50 µM: Enterococcus faecium, 3 h.
The mark [3] stands for this setting: planktonic, cutoff for positive-scoring molecules 3-fold increase, read-out: AK-based Prestwick Library Screening Results, E. coli (fold increase in extracellular AK activity).
The mark [4] stands for this setting: 50 μM final drug concentration, planktonic, cutoff for positive-scoring molecules 3-fold increase, read-out: AK-based Prestwick Library Screening Results, P. aeruginosa (fold increase in extracellular AK activity).
The mark [5] stands for this setting: 50 μM final drug concentration, planktonic, cutoff for positive-scoring molecules 3-fold increase, read-out: AK-based Prestwick Library Screening Results, A. baumannii (fold increase in extracellular AK activity).
Setting [6] is: 50 μM final drug concentration, planktonic, cutoff for positive-scoring molecules 3-fold increase, read-out: AK-based Prestwick Library Screening Results, E. cloacae (fold increase in extracellular AK activity).
[7] abbreviates: 50 μM final drug concentration, planktonic, cutoff for positive-scoring molecules 3-fold increase, read-out: AK-based Prestwick Library Screening Results, K. pneumoniae (fold increase in extracellular AK activity).
Where [8] appears, read: 50 μM final drug concentration, planktonic, cutoff for positive-scoring molecules 3-fold increase, read-out: AK-based Prestwick Library Screening Results, S. aureus (fold increase in extracellular AK activity).
[9] abbreviates: 50 μM final drug concentration, planktonic, cutoff for positive-scoring molecules 3-fold increase, read-out: AK-based Prestwick Library Screening Results, E. faecium (fold increase in extracellular AK activity).
Setting [10] is: cutoff for positive-scoring molecules 3-fold increase, read-out: AK-based Prestwick Library Screening Results, E. coli (fold increase in extracellular AK activity).
Where [11] appears, read: 50 μM final drug concentration, cutoff for positive-scoring molecules 3-fold increase, read-out: AK-based Prestwick Library Screening Results, P. aeruginosa (fold increase in extracellular AK activity).
The mark [12] stands for this setting: 50 μM final drug concentration, cutoff for positive-scoring molecules 3-fold increase, read-out: AK-based Prestwick Library Screening Results, A. baumannii (fold increase in extracellular AK activity).
[13] abbreviates: 50 μM final drug concentration, cutoff for positive-scoring molecules 3-fold increase, read-out: AK-based Prestwick Library Screening Results, E. cloacae (fold increase in extracellular AK activity).
Setting [14] is: 50 μM final drug concentration, cutoff for positive-scoring molecules 3-fold increase, read-out: AK-based Prestwick Library Screening Results, K. pneumoniae (fold increase in extracellular AK activity).
[15] abbreviates: 50 μM final drug concentration, cutoff for positive-scoring molecules 3-fold increase, read-out: AK-based Prestwick Library Screening Results, S. aureus (fold increase in extracellular AK activity).
Setting [16] is: 50 μM final drug concentration, cutoff for positive-scoring molecules 3-fold increase, read-out: AK-based Prestwick Library Screening Results, E. faecium (fold increase in extracellular AK activity).
Where [17] appears, read: planktonic, cutoff for positive 3-fold increase, read-out: AK-based Prestwick Library Screening Results, E. coli (fold increase in extracellular AK activity).
Where [18] appears, read: 50 μM final drug concentration, planktonic, cutoff for positive 3-fold increase, read-out: AK-based Prestwick Library Screening Results, P. aeruginosa (fold increase in extracellular AK activity).
Setting [19] is: 50 μM final drug concentration, planktonic, cutoff for positive 3-fold increase, read-out: AK-based Prestwick Library Screening Results, A. baumannii (fold increase in extracellular AK activity).
Where [20] appears, read: 50 μM final drug concentration, planktonic, cutoff for positive 3-fold increase, read-out: AK-based Prestwick Library Screening Results, E. cloacae (fold increase in extracellular AK activity).
The mark [21] stands for this setting: 50 μM final drug concentration, planktonic, cutoff for positive 3-fold increase, read-out: AK-based Prestwick Library Screening Results, K. pneumoniae (fold increase in extracellular AK activity).
Where [22] appears, read: 50 μM final drug concentration, planktonic, cutoff for positive 3-fold increase, read-out: AK-based Prestwick Library Screening Results, S. aureus (fold increase in extracellular AK activity).
Where [23] appears, read: 50 μM final drug concentration, planktonic, cutoff for positive 3-fold increase, read-out: AK-based Prestwick Library Screening Results, E. faecium (fold increase in extracellular AK activity).
Where [24] appears, read: 50 μM final drug concentration, planktonic, […].

Where a name gives a salt, the structure may show the parent alone. Read-outs that look alike come from different tables or passages of the source.

On to `CC[N+]1(C)CCCC(OC(=O)C(O)(c2ccccc2)c2ccccc2)C1` (stereo not shown) [Pipenzolate bromide], for which the fold induction at 50 µM with E. coli (setting [3]) turned out to be 0.9; with P. aeruginosa (setting [4]), 0.8; in test [1] (setting [5]) it was 0.7; with E. cloacae (setting [6]), 0.9; in the test with K. pneumoniae (setting [7]), 0.7; in test [2] (setting [8]) it was 0.8. For the same molecule, the fold induction at 50 µM in the test on E. faecium (setting [9]) stood at 0.9.

Consider `CC(=O)c1ccc2c(c1)N(CCCN1CCC(CCO)CC1)c1ccccc1S2` [Piperacetazine], for which the fold induction at 50 µM in the test on E. coli (setting [10]) is 0.5; with P. aeruginosa (setting [11]), 0.5; in test [1] (setting [12]) it was 0.6; with E. cloacae (setting [13]), 0.4; in the test on K. pneumoniae (setting [14]), 0.5; in test [2] (setting [15]) it was 0.5. The fold induction at 50 µM in the test on E. faecium (setting [16]) is 0.9.

For `CCN1CCN(C(=O)N[C@@H](C(=O)N[C@@H]2C(=O)N3[C@@H]2SC(C)(C)[C@@H]3C(=O)O)c2ccccc2)C(=O)C1=O` [Piperacillin sodium salt], the fold induction at 50 µM in the test on E. coli (setting [3]) is 12.6; in the test with P. aeruginosa (setting [4]), 8.7; in test [1] (setting [5]), 3.3; in the test on E. cloacae (setting [6]), 1.3; in the test on K. pneumoniae (setting [7]), 2.3; in test [2] (setting [8]), 0.4. Moreover, the fold induction at 50 µM with E. faecium (setting [9]) is 0.9.

For `CCN1CCCC(OC(=O)C(c2ccccc2)c2ccccc2)C1` (stereo not shown) [Piperidolate hydrochloride], the fold induction at 50 µM is 0.7 in the test with E. coli (planktonic E. coli, positive cutoff 3-fold increase, read-out: AK-based Prestwick library screening result, E. coli (fold increase in extracellular AK activity)); 0.7 in the test with P. aeruginosa (read-out: AK-based Prestwick library screening result, P. aeruginosa (fold increase in extracellular AK activity)); 0.6 in test [1] (read-out: AK-based Prestwick library screening result, A. baumannii (fold increase in extracellular AK activity)); 0.7 with E. cloacae (read-out: AK-based Prestwick library screening result, E. cloacae (fold increase in extracellular AK activity)); 0.6 in the test on K. pneumoniae (read-out: AK-based Prestwick library screening result, K. pneumoniae (fold increase in extracellular AK activity)); 0.6 in test [2] (read-out: AK-based Prestwick library screening result, S. aureus (fold increase in extracellular AK activity)). The fold induction at 50 µM with E. faecium (read-out: AK-based Prestwick library screening result, E. faecium (fold increase in extracellular AK activity)) amounted to 1.

Consider `O=C(/C=C/C=C/c1ccc2c(c1)OCO2)N1CCCCC1` [Piperine], for which the fold induction at 50 µM in the test with E. coli (setting [17]) is 0.4; in the test on P. aeruginosa (setting [18]), 0.4; in test [1] (setting [19]), 0.4; with E. cloacae (setting [20]), 1.6; in the test with K. pneumoniae (setting [21]) it was 0.3; in test [2] (setting [22]), 0.2. Moreover, the fold induction at 50 µM in the test with E. faecium (setting [23]) was determined as 0.3.

Take `COc1cc(/C=C/C(=O)N2CCC=CC2=O)cc(OC)c1OC` [Piperlongumine]: in the test on E. coli (planktonic, […]), the “AK-based Prestwick Library Screening Results, E. coli (fold increase in extracellular AK activity)” value turned out to be 1.2. Further, the “AK-based Prestwick Library Screening Results, P. aeruginosa (fold increase in extracellular AK activity)” value in the test with P. aeruginosa (setting [24]) is 1.1. Besides, in test [1] (setting [24]), the “AK-based Prestwick Library Screening Results, A. baumannii (fold increase in extracellular AK activity)” value is listed as 1.0. Further, the “AK-based Prestwick Library Screening Results, E. cloacae (fold increase in extracellular AK activity)” value with E. cloacae (setting [24]) came out at 1.6. The “AK-based Prestwick Library Screening Results, K. pneumoniae (fold increase in extracellular AK activity)” value in the test with K. pneumoniae (setting [24]) worked out at 1.0. In test [2] (setting [24]), the “AK-based Prestwick Library Screening Results, S. aureus (fold increase in extracellular AK activity)” value is 1.0. Moreover, the “AK-based Prestwick Library Screening Results, E. faecium (fold increase in extracellular AK activity)” value with E. faecium (setting [24]) is listed as 1.0.

Consider `NC(=O)CN1CCCC1=O` [Piracetam], for which the fold induction at 50 µM in the test on E. coli (setting [17]) came to 1.1; in the test on P. aeruginosa (setting [18]), 1.1; in test [1] (setting [19]) it was 0.9; in the test on E. cloacae (setting [20]) it was 1.4; in the test on K. pneumoniae (setting [21]), 1; in test [2] (setting [22]) it was 1. For the same molecule, the fold induction at 50 µM with E. faecium (setting [23]) amounted to 0.9.

`Cc1nc2ccccn2c(=O)c1CCN1CCC(C(=O)c2ccc(F)cc2)CC1` [Pirenperone]: the fold induction at 50 µM in the test with E. coli (setting [17]) was found to be 1.1; with P. aeruginosa (setting [18]), 1.2; in test [1] (setting [19]), 1.2; in the test with E. cloacae (setting [20]) it was 1.5; in the test with K. pneumoniae (setting [21]), 1; in test [2] (setting [22]), 1.1. In the test with E. faecium (setting [23]), the fold induction at 50 µM was found to be 1.1.

Turning to `CN1CCN(CC(=O)N2c3ccccc3C(=O)Nc3cccnc32)CC1` [Pirenzepine dihydrochloride], the fold induction at 50 µM is 1.4 in the test on E. coli (384-well format, cutoff for positive-scoring molecules 3-fold increase, read-out: AK-based Prestwick Library Screening Results, E. coli (increase in extracellular AK activity)); 1 in the test on P. aeruginosa (50 μM final drug concentration, 384-well format, cutoff for positive-scoring molecules 3-fold increase, read-out: AK-based Prestwick Library Screening Results, P. aeruginosa (increase in extracellular AK activity)); 1.1 in test [1] (50 μM final drug concentration, 384-well format, cutoff for positive-scoring molecules 3-fold increase, read-out: AK-based Prestwick Library Screening Results, A. baumannii (increase in extracellular AK activity)); 1.4 with E. cloacae (50 μM final drug concentration, 384-well format, cutoff for positive-scoring molecules 3-fold increase, read-out: AK-based Prestwick Library Screening Results, E. cloacae (increase in extracellular AK activity)); 1 with K. pneumoniae (50 μM final drug concentration, 384-well format, cutoff for positive-scoring molecules 3-fold increase, read-out: AK-based Prestwick Library Screening Results, K. pneumoniae (increase in extracellular AK activity)); 1 in test [2] (50 μM final drug concentration, 384-well format, cutoff for positive-scoring molecules 3-fold increase, read-out: AK-based Prestwick Library Screening Results, S. aureus (increase in extracellular AK activity)). Also, in the test on E. faecium (50 μM final drug concentration, 384-well format, cutoff for positive-scoring molecules 3-fold increase, read-out: AK-based Prestwick Library Screening Results, E. faecium (increase in extracellular AK activity)), the fold induction at 50 µM stood at 1.1.

Turning to `NS(=O)(=O)c1cc(C(=O)O)cc(N2CCCC2)c1Oc1ccccc1` [Piretanide], the fold induction at 50 µM in the test on E. coli (setting [10]) was 0.5; in the test with P. aeruginosa (setting [11]), 0.4; in test [1] (setting [12]), 0.4; in the test with E. cloacae (setting [13]), 0.4; in the test with K. pneumoniae (setting [14]), 0.5; in test [2] (setting [15]), 0.4. For the same molecule, the fold induction at 50 µM with E. faecium (setting [16]) amounted to 0.8.

The record behind these values is patent US10004701B2, “Methods and compositions for treating infection” (UNIVERSITY OF ROCHESTER, priority 2012, dated 2018).
